According to patent US4563474A, “Phthalimides and thienopyrrols as drugs” (BASF Aktiengesellschaft, priority 1982, dated 1986):
Where two headings read alike, the source gives them in different places.

Key:
[1] = system: orientation hypermotility; assay: Sedative action: reduction of orientation hypermotility induced by a new environment; assay type: in vivo, female NMRI mice; details: for ED50: po, 0.5 h, read-out: Sedative action (mouse) ED50
Method: The test substances were administered orally to groups comprising three female NMRI mice each. The orientation hypermotility induced by a new environment is determined photoelectrically, 30 minutes after administration of the substance, over a period of 30 minutes.
The ED50, ie. the dose which produces 50% reduction in orientation hypermotility compared to untreated control animals, was determined.

[2] = system: reserpine-induced hypothermia; assay: Antidepressant action: inhibition of reserpine-induced hypothermia; assay type: in vivo, male mice (Swiss); details: for ED50: po, read-out: Antidepressant action (mouse) ED50
Method: Antidepressants produce a dose-dependent inhibition of this hypothermia. The test substances were administered orally 60 minutes before reserpine.

[3] = mouse, administered orally, 30 min after administration, over 30 min, 50% reduction in orientation hypermotility
[4] = mouse, administered orally 60 minutes before reserpine (2.15 mg/kg s.c.), 50% inhibition of hypothermia

Structure (SMILES) | ED50 [1, 3] [mg/kg] | ED50 [2, 4] [mg/kg] | weak suppressant effect on the central nervous system (in words) ([1]; known, and also found in the test for sedative action) | antidepressant action (in words) ([2]; up to the maximum test dose of 2,150 mg/kg, administered orally) | ED50 ([1]; Mus musculus) [mg/kg] | ED50 ([2]; Mus musculus) [mg/kg]
CC(=CC#N)CN1C(=O)c2c(Cl)cccc2S1(=O)=O [Example 4, 3-(2,3-Dihydro-4-chloro-1,1-dioxido-3-oxo-1,2-benzisothiazol-2-yl)-1-cyano-2-methylprop-1-ene] | 52 | 3.1 |  |  |  | 
CC(=CC#N)CN1C(=O)c2ccccc2C1=O [Example 11, 3-(Phthalimid-2-yl)-1-cyano-2-methylprop-1-ene] | 68 | 18.9 |  |  |  | 
CC(=CC#N)CCN1C(=O)c2ccccc2C1=O [Example 18, 4-(Phthalimid-2-yl)-1-cyano-2-methylbut-1-ene] | 29 | 4.5 |  |  |  | 
CC(=CC#N)CN1C(=O)c2ccccc2S1(=O)=O [Example 1, 3-(2,3-dihydro-1,1-dioxido-3-oxo-1,2-benzisothiazol-2-yl)-1-cyano-2-methylprop-1-ene] | 50 | 3.5 |  |  |  | 
CC(=CC#N)CN1C(=O)c2cc(Cl)ccc2S1(=O)=O [Example 6, 3-(2,3-Dihydro-5-chloro-1,1-dioxido-3-oxo-1,2-benzisothiazol-2-yl)-1-cyano-2-methylprop-1-ene] | 100 | 1.1 |  |  |  | 
O=C1NCCCC1N1C(=O)c2ccccc2S1(=O)=O (stereo not drawn) [Supidimide, 3-(2,3-dihydro-1,1-dioxido-3-oxo-1,2-benzisothiazol-2-yl)-2-oxopiperidine, reference compound] | 277 | 2150 | weak suppressant effect on the central nervous system | completely absent |  | 
CC(=CC#N)CN1Cc2ccccc2C1=O [Example 12, 3-(Phthalimidin-2-yl)-1-cyano-2-methylprop-1-ene] | 49 | 11.4 |  |  |  | 
CN(C)CCCN1c2ccccc2CCc2ccccc21 [Imipramine, reference compound] |  |  |  |  | ~100 | 6.8
